In ChEMBL document CHEMBL1201862, “PubChem BioAssay data set” (2004):
Values belong to the compound of their own block, whether it stands above or below them. Active and inactive are the calls of the source.

Columns and labels:
[1] = target: Photoreceptor-specific nuclear receptor (Homo sapiens, UniProt Q9Y5X4); assay type: functional;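 further: potency for compounds that break the NR2E3 corepressor complex and count as activators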
[2] = target: T1, Sentrin-specific protease 6 (Homo sapiens, UniProt Q9GZR1); experiment: SAR Analysis of small molecule inhibitors of Sentrin-specific protease 6 (SENP6) using a Luminescent assay. [Related pubchem assays (depositor defined):AID2582, AID2599]; assay type: functional
T1 sequence (Q9GZR1 whole entry): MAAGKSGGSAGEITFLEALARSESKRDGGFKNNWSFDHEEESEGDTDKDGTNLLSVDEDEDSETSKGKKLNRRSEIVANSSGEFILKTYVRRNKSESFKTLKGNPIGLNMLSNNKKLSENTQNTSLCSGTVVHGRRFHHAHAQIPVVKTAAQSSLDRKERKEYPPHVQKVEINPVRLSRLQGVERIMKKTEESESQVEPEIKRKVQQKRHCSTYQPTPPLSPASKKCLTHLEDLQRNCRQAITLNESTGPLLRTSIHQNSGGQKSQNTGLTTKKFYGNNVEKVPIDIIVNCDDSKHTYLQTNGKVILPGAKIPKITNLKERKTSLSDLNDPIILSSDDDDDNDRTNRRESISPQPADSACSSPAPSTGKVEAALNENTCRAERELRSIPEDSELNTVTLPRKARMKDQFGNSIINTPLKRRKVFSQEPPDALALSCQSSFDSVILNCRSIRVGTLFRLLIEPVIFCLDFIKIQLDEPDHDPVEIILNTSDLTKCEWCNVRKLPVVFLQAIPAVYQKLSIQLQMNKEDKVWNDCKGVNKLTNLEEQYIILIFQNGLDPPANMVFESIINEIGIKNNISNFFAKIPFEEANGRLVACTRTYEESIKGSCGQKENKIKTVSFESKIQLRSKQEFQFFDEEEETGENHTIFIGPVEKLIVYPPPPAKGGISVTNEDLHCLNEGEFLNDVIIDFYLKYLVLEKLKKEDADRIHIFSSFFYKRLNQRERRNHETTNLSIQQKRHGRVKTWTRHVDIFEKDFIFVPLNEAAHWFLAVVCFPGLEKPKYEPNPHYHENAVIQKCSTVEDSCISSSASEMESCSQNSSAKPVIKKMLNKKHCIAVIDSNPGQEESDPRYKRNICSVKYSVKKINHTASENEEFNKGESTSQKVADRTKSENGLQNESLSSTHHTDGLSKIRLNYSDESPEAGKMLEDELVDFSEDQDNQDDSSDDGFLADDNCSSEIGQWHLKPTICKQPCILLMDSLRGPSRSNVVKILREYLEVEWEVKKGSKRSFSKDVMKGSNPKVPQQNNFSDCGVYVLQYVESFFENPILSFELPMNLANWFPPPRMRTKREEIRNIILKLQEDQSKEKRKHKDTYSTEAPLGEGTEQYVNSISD

Caspase-9 = Caspase-9 (Homo sapiens, UniProt P55211); experiment: caspase-9 enzyme inhibition, dose response, selectivity assay for caspase-6 inhibitor project, biochemical, fluorescence, plate reader, cherry-picked samples (AID 743293)
[3] = target: Protein kinase C theta type (Homo sapiens, UniProt Q04759); experiment: Navigating the Kinome. Panel member name: PRKCQ; assay type: functional
[4] = target: Serine/threonine-protein kinase TBK1 (Homo sapiens, UniProt Q9UHD2); experiment: Navigating the Kinome. Panel member name: TBK1; assay type: functional
Serine/threonine-protein kinase TBK1, sequence (Q9UHD2 whole entry): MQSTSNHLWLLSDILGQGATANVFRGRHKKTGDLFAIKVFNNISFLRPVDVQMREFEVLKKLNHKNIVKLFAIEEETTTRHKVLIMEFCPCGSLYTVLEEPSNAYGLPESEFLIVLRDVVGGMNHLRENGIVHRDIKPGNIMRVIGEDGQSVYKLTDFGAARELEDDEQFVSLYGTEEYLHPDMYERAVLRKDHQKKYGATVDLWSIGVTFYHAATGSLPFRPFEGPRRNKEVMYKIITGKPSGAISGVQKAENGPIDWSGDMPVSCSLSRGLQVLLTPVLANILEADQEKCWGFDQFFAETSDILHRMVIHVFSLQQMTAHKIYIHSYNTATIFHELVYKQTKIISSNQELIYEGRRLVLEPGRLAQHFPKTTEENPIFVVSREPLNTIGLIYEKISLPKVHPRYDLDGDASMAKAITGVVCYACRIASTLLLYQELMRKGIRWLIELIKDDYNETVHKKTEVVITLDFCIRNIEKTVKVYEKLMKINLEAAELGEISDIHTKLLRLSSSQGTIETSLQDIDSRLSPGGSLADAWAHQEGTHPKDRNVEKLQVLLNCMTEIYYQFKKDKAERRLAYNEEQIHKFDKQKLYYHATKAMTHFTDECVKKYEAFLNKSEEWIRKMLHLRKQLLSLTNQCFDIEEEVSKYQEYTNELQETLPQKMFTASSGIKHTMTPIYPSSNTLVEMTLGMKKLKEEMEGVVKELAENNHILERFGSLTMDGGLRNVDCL

[5] = target: RAC-gamma serine/threonine-protein kinase (Homo sapiens, UniProt Q9Y243); assay type: functional
RAC-gamma serine/threonine-protein kinase, sequence (Q9Y243 whole entry): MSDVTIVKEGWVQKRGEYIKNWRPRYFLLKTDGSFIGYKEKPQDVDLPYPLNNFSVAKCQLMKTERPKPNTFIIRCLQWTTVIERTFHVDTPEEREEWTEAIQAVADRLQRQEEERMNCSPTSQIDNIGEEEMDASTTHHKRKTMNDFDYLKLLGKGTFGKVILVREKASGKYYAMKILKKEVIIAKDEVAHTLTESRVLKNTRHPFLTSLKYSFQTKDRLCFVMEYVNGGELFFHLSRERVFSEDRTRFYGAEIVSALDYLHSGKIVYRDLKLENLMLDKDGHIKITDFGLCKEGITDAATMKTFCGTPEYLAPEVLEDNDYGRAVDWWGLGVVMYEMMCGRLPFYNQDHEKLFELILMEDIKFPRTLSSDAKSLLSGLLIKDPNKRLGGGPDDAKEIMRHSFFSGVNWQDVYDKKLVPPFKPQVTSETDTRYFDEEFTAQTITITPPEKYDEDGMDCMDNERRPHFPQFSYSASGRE

[6] = target: 5'-AMP-activated protein kinase catalytic subunit alpha-1 (Homo sapiens, UniProt Q13131); assay type: functional
5'-AMP-activated protein kinase catalytic subunit alpha-1, sequence (Q13131 whole entry): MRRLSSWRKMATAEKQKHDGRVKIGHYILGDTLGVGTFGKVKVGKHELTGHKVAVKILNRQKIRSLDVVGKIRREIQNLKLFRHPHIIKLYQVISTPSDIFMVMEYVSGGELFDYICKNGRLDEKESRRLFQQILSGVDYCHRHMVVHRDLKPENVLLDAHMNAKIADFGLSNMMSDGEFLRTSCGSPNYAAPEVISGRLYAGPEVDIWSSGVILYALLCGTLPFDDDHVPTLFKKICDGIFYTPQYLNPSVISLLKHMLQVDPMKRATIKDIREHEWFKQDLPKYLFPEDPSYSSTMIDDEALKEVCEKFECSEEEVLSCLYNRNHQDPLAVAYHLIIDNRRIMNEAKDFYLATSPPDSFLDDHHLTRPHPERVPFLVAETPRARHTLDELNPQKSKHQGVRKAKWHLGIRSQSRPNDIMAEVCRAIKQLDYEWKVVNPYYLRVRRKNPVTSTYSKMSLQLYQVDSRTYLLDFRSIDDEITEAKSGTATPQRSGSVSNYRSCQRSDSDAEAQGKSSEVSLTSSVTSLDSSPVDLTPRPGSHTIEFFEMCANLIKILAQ

[7] = target: Calcium/calmodulin-dependent protein kinase type II subunit gamma (Homo sapiens, UniProt Q13555); assay type: functional
[8] = target: Death-associated protein kinase 3 (Homo sapiens, UniProt O43293); assay type: functional;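 further: measured as one member of a kinome-wide profiling panel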
Death-associated protein kinase 3, sequence (O43293 whole entry): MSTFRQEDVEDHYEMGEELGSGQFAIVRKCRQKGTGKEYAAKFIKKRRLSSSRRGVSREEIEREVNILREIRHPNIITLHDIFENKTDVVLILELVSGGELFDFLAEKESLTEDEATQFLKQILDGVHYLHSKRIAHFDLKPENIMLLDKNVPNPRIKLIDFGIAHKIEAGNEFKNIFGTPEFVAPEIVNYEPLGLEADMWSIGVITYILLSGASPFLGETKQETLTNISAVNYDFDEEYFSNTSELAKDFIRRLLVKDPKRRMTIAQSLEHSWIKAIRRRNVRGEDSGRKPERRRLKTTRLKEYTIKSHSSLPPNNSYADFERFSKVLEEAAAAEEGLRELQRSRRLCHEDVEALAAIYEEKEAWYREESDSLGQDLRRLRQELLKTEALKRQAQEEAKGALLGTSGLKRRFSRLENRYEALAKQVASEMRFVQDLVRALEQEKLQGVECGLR

[9] = target: Mitogen-activated protein kinase 8 (Homo sapiens, UniProt P45983); assay type: functional;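 further: value comes from one member of a kinome-wide kinase profiling panel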
Mitogen-activated protein kinase 8, sequence (P45983 whole entry): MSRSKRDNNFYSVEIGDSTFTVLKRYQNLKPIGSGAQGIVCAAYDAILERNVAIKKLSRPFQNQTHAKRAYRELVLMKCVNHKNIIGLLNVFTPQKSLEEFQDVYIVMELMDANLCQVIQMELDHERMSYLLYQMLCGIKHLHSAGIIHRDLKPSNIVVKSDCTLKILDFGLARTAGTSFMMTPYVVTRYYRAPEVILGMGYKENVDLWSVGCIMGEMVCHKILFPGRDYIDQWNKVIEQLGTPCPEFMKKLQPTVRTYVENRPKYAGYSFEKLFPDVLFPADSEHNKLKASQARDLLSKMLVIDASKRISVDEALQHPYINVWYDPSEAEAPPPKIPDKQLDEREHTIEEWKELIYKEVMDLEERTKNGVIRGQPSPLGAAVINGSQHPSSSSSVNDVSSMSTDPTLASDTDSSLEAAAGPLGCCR

[10] = target: MAP kinase-activated protein kinase 5 (Homo sapiens, UniProt Q8IW41); assay type: functional;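 further: measured as one member of a kinome panel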
[11] = target: MAP kinase-activated protein kinase 2 (Homo sapiens, UniProt P49137); assay type: functional;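 further: measured as one member of a kinome-wide kinase panel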
MAP kinase-activated protein kinase 2, sequence (P49137 whole entry): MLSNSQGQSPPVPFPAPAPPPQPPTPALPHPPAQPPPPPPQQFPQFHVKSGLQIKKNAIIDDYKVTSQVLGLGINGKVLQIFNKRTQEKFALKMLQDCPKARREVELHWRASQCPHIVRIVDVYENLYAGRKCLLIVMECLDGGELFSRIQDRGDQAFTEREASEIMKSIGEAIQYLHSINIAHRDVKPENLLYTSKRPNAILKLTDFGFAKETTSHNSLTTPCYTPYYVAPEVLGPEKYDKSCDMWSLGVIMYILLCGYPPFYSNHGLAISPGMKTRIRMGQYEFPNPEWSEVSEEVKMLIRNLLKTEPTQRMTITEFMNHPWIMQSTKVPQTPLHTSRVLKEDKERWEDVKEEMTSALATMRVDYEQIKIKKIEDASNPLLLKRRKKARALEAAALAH

[12] = target: Tyrosine-protein kinase Blk (Homo sapiens, UniProt P51451); assay type: functional;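 further: obtained as one member of a kinome-wide kinase assay panel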
[13] = target: MAP/microtubule affinity-regulating kinase 3 (Homo sapiens, UniProt P27448); assay type: functional;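 further: MARK3 affinity measured as one member of a kinome panel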
[14] = target: Non-receptor tyrosine-protein kinase TYK2 (Homo sapiens, UniProt P29597); assay type: functional
[15] = target: Receptor tyrosine-protein kinase erbB-2 (Homo sapiens, UniProt P04626); experiment: Navigating the Kinome. Panel member name: ERBB2; assay type: functional
[16] = target: MAP kinase-activated protein kinase 3 (Homo sapiens, UniProt Q16644); assay type: functional;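 further: value comes from a kinome-wide profiling panel in which MAPKAPK3 is one of the panel members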
Ephrin type-A receptor 2 = Ephrin type-A receptor 2 (Homo sapiens, UniProt P29317); assay type: functional;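 further: EPHA2 tested as one member of a kinome-wide kinase panel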
[17] = target: Serine/threonine-protein kinase Nek4 (Homo sapiens, UniProt P51957); assay type: functional
Serine/threonine-protein kinase Nek4, sequence (P51957 whole entry): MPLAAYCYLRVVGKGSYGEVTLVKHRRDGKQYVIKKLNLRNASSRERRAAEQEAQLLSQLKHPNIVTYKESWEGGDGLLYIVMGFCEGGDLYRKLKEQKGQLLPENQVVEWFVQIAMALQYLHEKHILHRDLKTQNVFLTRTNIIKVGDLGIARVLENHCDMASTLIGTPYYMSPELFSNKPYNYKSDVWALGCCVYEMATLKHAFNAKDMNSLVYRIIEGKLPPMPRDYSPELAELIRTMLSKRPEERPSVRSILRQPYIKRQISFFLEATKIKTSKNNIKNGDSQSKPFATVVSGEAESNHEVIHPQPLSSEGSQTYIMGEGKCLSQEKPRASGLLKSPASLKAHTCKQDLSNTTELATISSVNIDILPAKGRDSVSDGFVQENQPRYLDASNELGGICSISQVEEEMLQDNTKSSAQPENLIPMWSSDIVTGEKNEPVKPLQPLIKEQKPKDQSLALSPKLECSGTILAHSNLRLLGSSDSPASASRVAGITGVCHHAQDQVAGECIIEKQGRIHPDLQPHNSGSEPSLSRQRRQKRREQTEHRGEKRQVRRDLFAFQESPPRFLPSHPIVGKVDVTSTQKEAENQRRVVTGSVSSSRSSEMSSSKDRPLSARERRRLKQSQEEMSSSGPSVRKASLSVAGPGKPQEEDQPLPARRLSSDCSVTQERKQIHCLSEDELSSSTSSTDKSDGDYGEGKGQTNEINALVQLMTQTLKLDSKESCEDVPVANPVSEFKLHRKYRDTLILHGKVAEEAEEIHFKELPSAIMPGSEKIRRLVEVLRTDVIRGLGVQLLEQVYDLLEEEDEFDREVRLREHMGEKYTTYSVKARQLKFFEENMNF

[18] = target: cAMP-dependent protein kinase catalytic subunit PRKX (Homo sapiens, UniProt P51817); assay type: functional
[19] = target: Platelet-derived growth factor receptor alpha (Homo sapiens, UniProt P16234); experiment: Navigating the Kinome. Panel member name: PDGFRA; assay type: functional
[20] = target: Leucine-rich repeat serine/threonine-protein kinase 2 (Homo sapiens, UniProt Q5S007); assay type: functional;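 further: value from a broad kinome-wide panel profiling study in which LRRK2 was one of the kinases tested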
[21] = target: Vascular endothelial growth factor receptor 3 (Homo sapiens, UniProt P35916); assay type: functional;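 further: value from a kinome-wide profiling panel, with FLT4 as the panel member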
[22] = target: Calcium/calmodulin-dependent protein kinase type 1 (Homo sapiens, UniProt Q14012); assay type: functional
[23] = target: Homeodomain-interacting protein kinase 4 (Homo sapiens, UniProt Q8NE63); assay type: functional
[24] = target: Serine/threonine-protein kinase Nek2 (Homo sapiens, UniProt P51955); assay type: functional
Serine/threonine-protein kinase Nek2, sequence (P51955 whole entry): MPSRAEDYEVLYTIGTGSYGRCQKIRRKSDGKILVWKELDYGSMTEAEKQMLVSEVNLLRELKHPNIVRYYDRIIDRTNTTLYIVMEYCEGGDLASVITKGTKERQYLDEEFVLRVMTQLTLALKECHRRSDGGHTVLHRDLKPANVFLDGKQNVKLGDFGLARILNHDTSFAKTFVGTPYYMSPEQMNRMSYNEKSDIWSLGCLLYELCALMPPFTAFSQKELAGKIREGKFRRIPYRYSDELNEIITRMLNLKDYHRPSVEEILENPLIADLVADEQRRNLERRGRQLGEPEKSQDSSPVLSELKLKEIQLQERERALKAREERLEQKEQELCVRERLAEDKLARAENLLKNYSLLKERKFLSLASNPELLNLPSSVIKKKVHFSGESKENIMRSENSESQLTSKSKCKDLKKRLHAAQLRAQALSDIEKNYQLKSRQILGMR

[25] = target: Cyclin-dependent kinase 8 (Homo sapiens, UniProt P49336); experiment: Navigating the Kinome. Panel member name: CDK8; assay type: functional
[26] = target: Mitogen-activated protein kinase kinase kinase kinase 4 (Homo sapiens, UniProt O95819); assay type: functional
[27] = target: Dual specificity mitogen-activated protein kinase kinase 2 (Homo sapiens, UniProt P36507); experiment: Navigating the Kinome. Panel member name: MAP2K2; assay type: functional
[28] = target: Leukocyte tyrosine kinase receptor (Homo sapiens, UniProt P29376); experiment: Navigating the Kinome. Panel member name: LTK; assay type: functional

Photoreceptor-specific nuclear receptor, sequence (Q9Y5X4 whole entry): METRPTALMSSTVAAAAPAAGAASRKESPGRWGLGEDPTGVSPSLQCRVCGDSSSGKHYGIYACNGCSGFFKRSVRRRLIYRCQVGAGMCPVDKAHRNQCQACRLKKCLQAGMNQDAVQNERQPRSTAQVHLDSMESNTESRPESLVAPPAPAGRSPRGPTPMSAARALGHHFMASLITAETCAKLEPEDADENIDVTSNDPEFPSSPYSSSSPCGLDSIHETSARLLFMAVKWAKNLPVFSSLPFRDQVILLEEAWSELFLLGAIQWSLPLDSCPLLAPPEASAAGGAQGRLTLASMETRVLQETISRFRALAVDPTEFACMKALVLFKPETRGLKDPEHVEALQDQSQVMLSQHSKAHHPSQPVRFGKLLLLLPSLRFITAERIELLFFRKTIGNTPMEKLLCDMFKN

SMILES: COc1cc(Br)c(C(=O)c2nccc3cc(OC)c(OC)cc23)cc1OC
IC50 [1]: > 39.8 µM (not active) | IC50 [2]: 14.3 µM (active)

SMILES: Cc1c(NC(=O)C(C)OC(=O)c2ccc([N+](=O)[O-])s2)c(=O)n(-c2ccccc2)n1C (stereo not given)
AC50 (Caspase-9): 41.3 µM (active)

Ki [3]: 0.00794 µM (active) | Ki [4]: > 3.16 µM (inactive) | Ki [5]: 2.51 µM (active) | Ki [6]: > 2.51 µM (inactive) | Ki [7]: > 6.31 µM (inactive) | Ki [9]: > 3.98 µM (inactive) | Ki [10]: > 1.58 µM (inactive) | Ki [11]: > 7.94 µM (inactive) | Ki [12]: > 1.58 µM (inactive) | Ki [13]: > 5.01 µM (inactive) | Ki [14]: > 2 µM (inactive) | Ki [15]: > 1.58 µM (inactive) | Ki [16]: > 10 µM (inactive) | Ki (Ephrin type-A receptor 2): > 3.16 µM (inactive) | Ki [17]: > 6.31 µM (inactive) | Ki [18]: 0.501 µM (active) | Ki [19]: > 2.51 µM (inactive) | Ki [20]: 0.02 µM (active) | Ki [21]: > 6.31 µM (inactive) | Ki [22]: > 1.58 µM (inactive) | Ki [23]: > 7.94 µM (inactive) | Ki [24]: > 10 µM (inactive) | Ki [25]: 0.501 µM (active) | Ki [26]: > 2.51 µM (inactive) | Ki [27]: > 2 µM (inactive) | Ki [28]: 0.398 µM (active)
SMILES: CC(N)C1CCC(C(=O)Nc2ccnc3[nH]ccc23)CC1 (stereo not given)
Ki [8]: > 1.26 µM (inactive)
